Results as given in patent US12427134B2, “Methods of reducing the risk of cardiovascular events in a subject with atrial fibrillation and/or atrial flutter” (priority 2019, dated 2025).

System: hypertriglyceridemic patients with cardiovascular disease or at high risk for cardiovascular disease
Assay: REDUCE-IT: electrocardiograms, vital signs (blood pressure, pulse), weight and waist circumference
Format: in vivo, human
Experimental: Blood pressure was measured using a standardized process: • Patient sat for ≥5 minutes with feet flat on the floor and measurement arm supported so that the midpoint of the manometer cuff was at heart level; and • Used a mercury sphygmomanometer or automatic blood pressure device with an appropriately sized cuff with the bladder centered over the brachial artery.
Blood pressure was recorded to the nearest 2 mmHg mark on the manometer or to the nearest whole number on an automatic device. A blood pressure reading was repeated 1 to 2 minutes later, and the second reading recorded to the nearest 2 mmHg mark.
Height, Weight and Body Mass Index: Height and weight were measured. Measurement of weight was performed with the patient dressed in indoor clothing, with shoes removed, and bladder empty.
Waist Circumference: Waist circumference was measured with a tape measure, as follows: Start at the top of the hip bone then bring the tape measure all the way around—level with the navel. Make sure the tape measure is snug, but without compressing the skin, and that it is parallel with the floor. Patients should not have held their breath while measuring waist circumference.
12-Lead Electrocardiogram (ECG): ECGs (standard 12-lead) were obtained annually. Site personnel made every attempt to perform a patient's ECG using the same equipment at each visit. ECGs were reviewed by the site for the detection of silent MI. Silent MIs were sent for event adjudication. All post-randomization ECGs (protocol-specified and other) were sent to the CEC for evaluation of silent MI. The 12-lead ECG parameters included Heart Rate (bpm), PR Interval (msec), QRS Interval (msec), QT Interval (msec), and QTc Interval (msec) were measured, and Overall Interpretation and Silent MI (Yes/No) were summarized for all patients at Screening (Visit 1), Randomization visit (Visit 2; Day 0) and all other follow-up visits including the last visit of the study.
A treatment-emergent PCS high value at any time was defined as a change from a value less than or equal to the defined PCS value at baseline to a PCS high value at any post-baseline measurement. A treatment-emergent PCS low value at any time was defined as a change from a value greater than or equal to the lower PCS value at baseline to a PCS low value at any post-baseline measurement.
As an additional exploratory analysis, the relationship between post-baseline biomarker values and treatment effects with the primary and key secondary endpoints were assessed by adding biomarker values (for example, at 4 months, or at 1 year, etc.) as time-dependent covariates in the Cox proportional hazards model. Diagnostic plots for the proportional hazard's assumption was evaluated. Weight was measured at the screening visit and at all follow-up visits, including the last visit of the study. Waist circumference was measured at the randomization visit (Visit 2; Day 0), Visit 5 (Day 720) and the last visit of the study. Descriptive statistics were presented by visit and treatment group for baseline, post-treatment change from baseline, and the percent change from baseline. Analysis methods for repeated measurements were used to compare percent change from baseline between treatments.

[1] = Baseline (Visit 2), Safety population
[2] = Visit 9 (n = 8), Safety population
[3] = any post-baseline visit, 3683 patients with data
[4] = any post-baseline visit, 3823 patients with data
[5] = any post-baseline visit, 3834 patients with data
[6] = any post-baseline visit, 3983 patients with data

CC/C=C\C/C=C\C/C=C\C/C=C\C/C=C\CCCC(=O)OCC [AMR101, eicosapentaenoic acid ethyl ester]
Diastolic Blood Pressure, mean baseline value [1]: 78.1 mmHg
ECG Heart Rate, mean baseline value [1]: 66.6 beats/minute
Heart Rate (vital sign), mean baseline value [1]: 68.1 beats/minute
PR Interval, mean baseline value [1]: 172.2 ms
QTc Interval, mean baseline value [1]: 422.4 ms
Systolic Blood Pressure, mean baseline value [1]: 132.6 mmHg
Diastolic Blood Pressure, mean change from baseline (Last Visit, Safety population): −0.7 mmHg
ECG Heart Rate, mean change from baseline (Last Visit, Safety population): 2.1 beats/minute
Heart Rate (vital sign), mean change from baseline (Last Visit, Safety population): 1.7 beats/minute
PR Interval, mean change from baseline (Last Visit, Safety population): 1.7 ms
QTc Interval, mean change from baseline (Last Visit, Safety population): 5.0 ms
Systolic Blood Pressure, mean change from baseline (Last Visit, Safety population): 0.9 mmHg
ECG TEAE - ECG signs of myocardial ischemia, % patients (Safety population, N = 4089): (0.0) %
ECG TEAE - ECG signs of myocardial ischemia, n patients (Safety population, N = 4089): 2
ECG TEAE - Electrocardiogram PR prolongation, % patients (Safety population, N = 4089): (0.0) %
ECG TEAE - Electrocardiogram PR prolongation, n patients (Safety population, N = 4089): 0
ECG TEAE - Electrocardiogram Q wave abnormal, % patients (Safety population, N = 4089): (0.0) %
ECG TEAE - Electrocardiogram Q wave abnormal, n patients (Safety population, N = 4089): 1
ECG TEAE - Electrocardiogram QRS complex abnormal, % patients (Safety population, N = 4089): (0.0) %
ECG TEAE - Electrocardiogram QRS complex abnormal, n patients (Safety population, N = 4089): 2
ECG TEAE - Electrocardiogram QT prolonged, % patients (Safety population, N = 4089): (0.2) %
ECG TEAE - Electrocardiogram QT prolonged, n patients (Safety population, N = 4089): 10
ECG TEAE - Electrocardiogram ST segment abnormal, % patients (Safety population, N = 4089): (0.1) %
ECG TEAE - Electrocardiogram ST segment abnormal, n patients (Safety population, N = 4089): 6
ECG TEAE - Electrocardiogram ST segment depression, % patients (Safety population, N = 4089): (0.1) %
ECG TEAE - Electrocardiogram ST segment depression, n patients (Safety population, N = 4089): 4
ECG TEAE - Electrocardiogram ST-T change, % patients (Safety population, N = 4089): (0.0) %
ECG TEAE - Electrocardiogram ST-T change, n patients (Safety population, N = 4089): 1
ECG TEAE - Electrocardiogram ST-T segment abnormal, % patients (Safety population, N = 4089): (0.0) %
ECG TEAE - Electrocardiogram ST-T segment abnormal, n patients (Safety population, N = 4089): 2
ECG TEAE - Electrocardiogram T wave abnormal, % patients (Safety population, N = 4089): (0.1) %
ECG TEAE - Electrocardiogram T wave abnormal, n patients (Safety population, N = 4089): 6
ECG TEAE - Electrocardiogram T wave amplitude decreased, % patients (Safety population, N = 4089): (0.0) %
ECG TEAE - Electrocardiogram T wave amplitude decreased, n patients (Safety population, N = 4089): 0
ECG TEAE - Electrocardiogram T wave inversion, % patients (Safety population, N = 4089): (0.2) %
ECG TEAE - Electrocardiogram T wave inversion, n patients (Safety population, N = 4089): 7
ECG TEAE - Electrocardiogram T wave normal, % patients (Safety population, N = 4089): (0.0) %
ECG TEAE - Electrocardiogram T wave normal, n patients (Safety population, N = 4089): 0
ECG TEAE - Electrocardiogram abnormal, % patients (Safety population, N = 4089): (0.2) %
ECG TEAE - Electrocardiogram abnormal, n patients (Safety population, N = 4089): 10
ECG TEAE - Electrocardiogram change, % patients (Safety population, N = 4089): (0.1) %
ECG TEAE - Electrocardiogram change, n patients (Safety population, N = 4089): 3
ECG TEAE - Exercise electrocardiogram abnormal, % patients (Safety population, N = 4089): (0.0) %
ECG TEAE - Exercise electrocardiogram abnormal, n patients (Safety population, N = 4089): 1
Diastolic Blood Pressure, mean change from baseline (Visit 3, Safety population): 0.1 mmHg
Heart Rate (vital sign), mean change from baseline (Visit 3, Safety population): 1.2 beats/minute
Systolic Blood Pressure, mean change from baseline (Visit 3, Safety population): −0.5 mmHg
Diastolic Blood Pressure, mean change from baseline (Visit 4, Safety population): −0.1 mmHg
ECG Heart Rate, mean change from baseline (Visit 4, Safety population): 1.2 beats/minute
Heart Rate (vital sign), mean change from baseline (Visit 4, Safety population): 0.9 beats/minute
PR Interval, mean change from baseline (Visit 4, Safety population): -0.3 ms
QTc Interval, mean change from baseline (Visit 4, Safety population): 1.8 ms
Systolic Blood Pressure, mean change from baseline (Visit 4, Safety population): −0.2 mmHg
Diastolic Blood Pressure, mean change from baseline (Visit 5, Safety population): −0.1 mmHg
ECG Heart Rate, mean change from baseline (Visit 5, Safety population): 1.7 beats/minute
Heart Rate (vital sign), mean change from baseline (Visit 5, Safety population): 1.3 beats/minute
PR Interval, mean change from baseline (Visit 5, Safety population): 0.4 ms
QTc Interval, mean change from baseline (Visit 5, Safety population): 2.8 ms
Systolic Blood Pressure, mean change from baseline (Visit 5, Safety population): 0.5 mmHg
Diastolic Blood Pressure, mean change from baseline (Visit 6, Safety population): −0.4 mmHg
ECG Heart Rate, mean change from baseline (Visit 6, Safety population): 1.6 beats/minute
Heart Rate (vital sign), mean change from baseline (Visit 6, Safety population): 1.4 beats/minute
PR Interval, mean change from baseline (Visit 6, Safety population): 0.8 ms
QTc Interval, mean change from baseline (Visit 6, Safety population): 3.7 ms
Systolic Blood Pressure, mean change from baseline (Visit 6, Safety population): 0.9 mmHg
Diastolic Blood Pressure, mean change from baseline (Visit 7, Safety population): −0.5 mmHg
ECG Heart Rate, mean change from baseline (Visit 7, Safety population): 1.8 beats/minute
Heart Rate (vital sign), mean change from baseline (Visit 7, Safety population): 1.5 beats/minute
PR Interval, mean change from baseline (Visit 7, Safety population): 1.4 ms
QTc Interval, mean change from baseline (Visit 7, Safety population): 5.0 ms
Systolic Blood Pressure, mean change from baseline (Visit 7, Safety population): 0.8 mmHg
Diastolic Blood Pressure, mean change from baseline (Visit 8, Safety population): −1.0 mmHg
ECG Heart Rate, mean change from baseline (Visit 8, Safety population): 1.4 beats/minute
Heart Rate (vital sign), mean change from baseline (Visit 8, Safety population): 0.9 beats/minute
PR Interval, mean change from baseline (Visit 8, Safety population): 2.2 ms
QTc Interval, mean change from baseline (Visit 8, Safety population): 6.6 ms
Systolic Blood Pressure, mean change from baseline (Visit 8, Safety population): 0.4 mmHg
PR Interval, mean change from baseline (Visit 9 (n = 5), Safety population): -21.2 ms
ECG Heart Rate, mean change from baseline (Visit 9 (n = 7), Safety population): 7.6 beats/minute
Diastolic Blood Pressure, mean change from baseline [2]: −2.7 mmHg
Heart Rate (vital sign), mean change from baseline [2]: 2.8 beats/minute
Systolic Blood Pressure, mean change from baseline [2]: −5.4 mmHg
PCS ECG finding: PR Interval <120 msec, % patients [3]: (7.1) %
PCS ECG finding: PR Interval <120 msec, n patients [3]: 261
PCS ECG finding: PR Interval >120 msec and increase >20 msec from baseline, % patients [3]: (24.8) %
PCS ECG finding: PR Interval >120 msec and increase >20 msec from baseline, n patients [3]: 913
PCS ECG finding: QTc Interval >500 msec, % patients [4]: (5.4) %
PCS ECG finding: QTc Interval >500 msec, n patients [4]: 208
PCS ECG finding: QRS Interval >110 msec, % patients [5]: (29.3) %
PCS ECG finding: QRS Interval >110 msec, n patients [5]: 1124
Diastolic Blood Pressure Decrease of ≥10 mmHg, % patients [6]: (39.4) %
Diastolic Blood Pressure Decrease of ≥10 mmHg, n patients [6]: 1569
Diastolic Blood Pressure Increase of ≥10 mmHg, % patients [6]: (36.2) %
Diastolic Blood Pressure Increase of ≥10 mmHg, n patients [6]: 1442
Diastolic Blood Pressure PCS High ≥100 mmHg and increase of ≥10 mmHg, % patients [6]: (4.5) %
Diastolic Blood Pressure PCS High ≥100 mmHg and increase of ≥10 mmHg, n patients [6]: 179
Diastolic Blood Pressure PCS High ≥100 mmHg, % patients [6]: (5.6) %
Diastolic Blood Pressure PCS High ≥100 mmHg, n patients [6]: 223
Diastolic Blood Pressure PCS Low ≤50 mmHg and decrease of ≥10 mmHg, % patients [6]: (0.9) %
Diastolic Blood Pressure PCS Low ≤50 mmHg and decrease of ≥10 mmHg, n patients [6]: 35
Diastolic Blood Pressure PCS Low ≤50 mmHg, % patients [6]: (1.1) %
Diastolic Blood Pressure PCS Low ≤50 mmHg, n patients [6]: 42
Pulse Decrease of ≥15 beats/min, % patients [6]: (14.1) %
Pulse Decrease of ≥15 beats/min, n patients [6]: 562
Pulse Increase of ≥15 beats/min, % patients [6]: (27.4) %
Pulse Increase of ≥15 beats/min, n patients [6]: 1092
Pulse PCS High ≥90 beats/min and increase of ≥15 beats/min, % patients [6]: (9.3) %
Pulse PCS High ≥90 beats/min and increase of ≥15 beats/min, n patients [6]: 370
Pulse PCS High ≥90 beats/min, % patients [6]: (13.8) %
Pulse PCS High ≥90 beats/min, n patients [6]: 551
Pulse PCS Low ≤50 beats/min and decrease of ≥15 beats/min, % patients [6]: (1.7) %
Pulse PCS Low ≤50 beats/min and decrease of ≥15 beats/min, n patients [6]: 68
Pulse PCS Low ≤50 beats/min, % patients [6]: (7.4) %
Pulse PCS Low ≤50 beats/min, n patients [6]: 293
Systolic Blood Pressure Decrease of ≥20 mmHg, % patients [6]: (25.3) %
Systolic Blood Pressure Decrease of ≥20 mmHg, n patients [6]: 1009
Systolic Blood Pressure Increase of ≥20 mmHg, % patients [6]: (29.2) %
Systolic Blood Pressure Increase of ≥20 mmHg, n patients [6]: 1163
Systolic Blood Pressure PCS High ≥160 mmHg and increase of ≥20 mmHg, % patients [6]: (11.3) %
Systolic Blood Pressure PCS High ≥160 mmHg and increase of ≥20 mmHg, n patients [6]: 450
Systolic Blood Pressure PCS High ≥160 mmHg, % patients [6]: (18.0) %
Systolic Blood Pressure PCS High ≥160 mmHg, n patients [6]: 715
Systolic Blood Pressure PCS Low ≤90 mmHg and decrease of ≥20 mmHg, % patients [6]: (0.7) %
Systolic Blood Pressure PCS Low ≤90 mmHg and decrease of ≥20 mmHg, n patients [6]: 27
Systolic Blood Pressure PCS Low ≤90 mmHg, % patients [6]: (1.0) %
Systolic Blood Pressure PCS Low ≤90 mmHg, n patients [6]: 40
